Laboratory results from patent publication US20120301433A1, “BACTERIOPHAGES EXPRESSING AMYLOID PEPTIDES AND USES THEREOF” (priority 2009, published 2012).

Legend:
[1] = molecular target: T1, CsgA (Escherichia coli, UniProt P28307); assay type: biochemical; conditions: CsgA:inhibitor ratios, FIG. 9
[2] = molecular target: T1, CsgA; conditions: 20-residue peptides on array
[3] = molecular target: T1, CsgA; conditions: ThT fluorescence, FIG. 7E

T1 sequence (P28307 21-151): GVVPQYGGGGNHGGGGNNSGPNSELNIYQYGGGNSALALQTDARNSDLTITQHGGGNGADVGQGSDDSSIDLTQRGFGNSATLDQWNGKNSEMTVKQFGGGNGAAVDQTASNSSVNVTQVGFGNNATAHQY

| Compound | effect of small molecule inhibitors on curli amyloid fiber formation (in words) [1] | fluorescence of labelled CsgA bound to peptide spot (in words) [2] | nucleation of CsgA fiber assembly by plate-bound peptide (in words) [3] |
| --- | --- | --- | --- |
| COc1ccc(Nc2cc3c(cc2Nc2ccc(OC)cc2)C(=O)NC3=O)cc1 [DAPH-12] | secetively inhibits Curli assembly |  |  |
| C[C@@H]1[C@H](O)[C@@H](C)/C=C/C=C/C=C/C=C/C=C/C=C/C=C/[C@H](O[C@@H]2O[C@H](C)[C@@H](O)[C@H](N)[C@@H]2O)C[C@@H]2O[C@](O)(C[C@@H](O)C[C@@H](O)[C@H](O)CC[C@@H](O)C[C@@H](O)CC(=O)O[C@H]1C)C[C@H](O)[C@H]2C(=O)O [AmphB, Amphotericin B] | does not inhibit Curli assembly |  |  |
| GTQKTAIVVQRQSQMAIRVT [CsgB130-149] |  | strongest signal | facilitated CsgA amyloid fiber formation with first-order kinetics |
